The test system of series [1] is HCT-116. Description: Cell cycle analysis (sub-G1, DAPI flow cytometry), HCT-116. The class given is cell-based, human. The following applies: HCT-116, 24 h, dose dependent increase, mean ± SD. Here is the method:
(§1) One of the most common mechanisms in anticancer drug treatment is changes in cell cycle, which can be measured by DNA content. Cell cycle distribution in HCT-116, HeLa and MCF-7 cells was examined to determine cycle arrest and/or presence of sub-G1 after treatment with compounds 37 and 46. […] Cell populations data are expressed as the mean ± SD of at least three independent experiments.
(§2) Following treatment, cells were fixed in cold 70% ethanol for 30 min. Fixed cells were stained for 15 min in buffer containing 500 μg/mL RNAse A (EURx, Gdansk, Poland) and 2.5 μg/mL of DAPI (Sigma-Aldrich, Munich, Germany). The fluorescence of DAPI was measured at 440 ± 40 nm with a flow cytometer (LSR II, BD Biosciences, Mountain View, CA, USA). Each experiment was performed at least in triplicate. Data were analyzed off-line using the BD FACSDiva (BD Biosciences).

The test system of series [2] is HeLa. Description: Cell cycle analysis (sub-G1, DAPI flow cytometry), HeLa. The class given is cell-based, human. As to conditions: 24 h, dose dependent increase, mean ± SD. Here is the method:
as §1, §2

Series [3] has as its system active caspases (caspases 1 through 9) in HeLa cells. Description: Caspase activity (FAM-VAD-FMK, flow cytometry), HeLa. Type of series: cell-based, human. As to conditions: 100 μM, increase over control. Here is the method: Caspase activation plays a central role in the execution of apoptosis and is required for the occurrence of its biochemical and morphological hallmarks, such as DNA fragmentation, formation of apoptotic bodies and chromatin condensation. The ability of the examined compounds to induce caspase activity was determined with the use of a fluorescent labeled caspase inhibitor, a carboxyfluorescein (FAM) derivative of valylalanylaspartic acid (VAD) fluoromethyl ketone (FMK).
FAM-VAD-FMK contains a target sequence recognized by active caspases (caspases 1 through 9). Binding to this sequence inhibits the enzymatic activity of caspases and allows for the determination of their activity through the direct measurement of fluorescent intensity of the bound inhibitor. […] The strongest influence on caspase activation was noticed for the HeLa cell line, where that cell population increased by 31% in the presence of 37 at a concentration of 100 μM.
Caspase activity was determined with the FLICA Apoptosis Detection Kit (Immunochemistry Technologies, Bloomington, MN, USA) according to the manufacturer’s instructions. […] The fluorescence intensity of fluorescein was determined with flow cytometry (BD FACSCalibur) and caspase activity was determined as the amount of fluorescence emitted from caspase inhibitors bound to the caspases.

For series [4], the system named is HeLa. Description: Mitochondrial membrane potential (JC-1), HeLa. The following applies: 24 h, low and moderate concentrations. The class given is cell-based, human. Here is the method: Loss of the mitochondrial membrane potential (Δψm) is one of the earliest indicators of an apoptosis. It can be detected using fluorescent dye JC-1 (5,5′,6,6′-tetrachloro-1,1′,3,3′-tetraethylbenzimidazolylcarbocyanine iodide) exited with blue laser. JC-1 spontaneously forms dimer complexes (J aggregates) with red fluorescent or remain as a monomers with green fluorescence in cells with high and low Δψm, respectively.
Half an hour before the end of 24 h-treatment 2.5 μg/mL of JC-1 (5,5′,6,6′-tetrachloro-1,1′,3,3′-tetraethylbenzimidazolylcarbocyanine iodide) was added to the cell medium. As a negative control 100 μM CCCP (carbonyl cyanide 3-chlorophenylhydrazone) was used 15 min before JC-1 treatment. Following treatment cells were twice washed with PBS and analyzed with flow cytometer (LSR II, BD Biosciences).
Green and red fluorescence were observed using FL-1 (530 ± 30 nm) and FL-2 (585 ± 42 nm) channels, respectively. Percentage of cell population in red or green fluorescence gate indicated the level of Δψm. Decreasing red fluorescence cell population indicated lower Δψm.

For series [5], the system named is HCT-116. Description: Cell morphology (light microscope), HCT-116. As to conditions: HCT-116, 25–100 μM, 24 h. Type of series: cell-based, human. Here is the method:
To evaluate the changes in morphology of the treated cells, they were incubated with increasing concentrations of 37 (HCT-116, HeLa) or 46 (MCF-7) for 24 h and observed using light microscope.
The HCT-116, HeLa and MCF-7cells were seeded on 24-well plates (5 × 10^4/per well) in 300 μL of medium and incubated with 37 (HCT-116, HeLa) or 46 (MCF-7) for 24 h. Cells incubated with increasing concentrations of compounds (25–100 μM) were observed after 24 h using light microscope Axiovert 200 (Zeiss, Oberkochen, Germany).

A short description of series [6]: Metabolic stability with human liver microsomes and NADPH. The class given is in vitro ADME. The following applies: liver microsomes, pH 7.4, human liver microsomes 0.5 mg/mL, 1 mM NADPH, 10 μM compound, pH 7.4, 37 °C, up to 60 min, read-out: In Vitro Metabolic Half-Life t1/2. Here is the method:
Stock solutions of studied compounds were prepared at concentration of 10 mM in DMSO. […] Incubation mixture contained 10 μM of a studied derivative, 1 mM of NADPH (Sigma-Aldrich) and 0.5 mg/mL of human liver microsomes (HLM, Sigma-Aldrich) in potassium phosphate buffer (0.1 M, pH 7.4). Incubation was carried out in thermostat at 37 °C and started by addition of studied compound. 50 μL samples were taken after 5, 15, 30, 45 and 60 min. Enzymatic reaction was terminated by the addition of the equal volume of ice-cold acetonitrile containing 10 μM of alprazolam (Sigma-Aldrich) serving as internal standard (IS). Control incubations were performed without NADPH to assess chemical instability. After collection, samples were immediately centrifuged (10 min, 10,000 rpm) and resulted supernatant was directly analyzed or kept in −80 °C until LC-MS analysis. Natural logarithm of a compound over IS peak area ratio was plotted versus incubation time. Metabolic half-time (t1/2) was calculated from the slope of the linear regression, as reported in [48].
LC-MS analysis was performed on an Agilent 1260 system coupled to SingleQuad 6120 mass spectrometer (Agilent Technologies, Santa Clara, CA, USA). Ascentis Express ES-CN (2.1 mm × 100 mm, 2.7 μm, Supelco Analytical, Bellefonte, PA, USA) was used in reversed-phase mode with gradient elution starting with 50% of phase A (10 mM ammonium formate in water) and 50% of phase B (10 mM ammonium formate in acetonitrile-water mixture, 95:5 v/v). […] Total analysis time was 10 min at 25 °C, flow rate was 0.4 mL/min and the injection volume was 20 μL. The mass spectrometer was equipped with electrospray ion source and operated in positive ionization. Mass analyzer was set individually to each compound to detect [M + H]^+ pseudomolecular ions. MSD parameters of the ESI source were as follows: nebulizer pressure 50 psig (N2), drying gas […] (N2), drying gas temperature 300 °C, capillary voltage 3.5 kV, fragmentor voltage 100 V.

The structures appear in SMILES notation.

For `Cc1cc(S(=O)(=O)Nc2nncc(-c3ccc(C(F)(F)F)cc3)n2)c(SCc2cccc3ccccc23)cc1Cl` [Compound 37, 4-Chloro-5-methyl-2-[(naphthalene-1-yl)methylthio]-N-[5-(4-trifluoromethylphenyl)-1,2,4-triazin-3-yl]-benzenesulfonamide], the Sub-G1 cell population in the series on HCT-116 [1] is reported as 48.6% ± 13.5%; with HeLa [2] it was 21% ± 3.4%. In addition, the “increase of cell population with activated caspases” value in series [3] was determined as 31%. Besides, the “effect on mitochondrial membrane potential (Δψm)” value in the series with HeLa [4] is “remarkably decreased Δψm”. The morphological changes entry with HCT-116 [5] is given as “shrinkage of the cells, detachment from the surface”. Besides, the half-life at 10 μM in series [6] came to 32.8 min.

Values taken from paper PMC6273912, “Novel 5-Substituted 2-(Aylmethylthio)-4-chloro-N-(5-aryl-1,2,4-triazin-3-yl)benzenesulfonamides: Synthesis, Molecular Structure, Anticancer Activity, Apoptosis-Inducing Activity and Metabolic Stability” (Molecules, 2016).
